Experimental data as given in PubChem BioAssay AID720602 (Broad Institute, 2013).

Tested on: LOX IMVI viability, ATP luminescence, 8/24/48 h
Test: cytotoxicity in LOX IMVI melanoma cells – cell-based, CellTiter-Glo ATP luminescence, 8/24/48 h, dry powder, HRAS target identification, dose response (AID 720602)

Structure (SMILES): COC(=O)c1ccc([C@@H]2c3[nH]c4ccccc4c3C[C@@H](C(=O)OC)N2C(=O)CCl)cc1
- AC50 (measured here: AC50 at 8 h): 15.7 nM
- AC50 (measured here: AC50 at 24 h): 10.1 nM
- AC50 (measured here: AC50 at 48 h): 187 nM

Structure (SMILES): C#CCCCC(=O)NCCOCCOCCOc1ccc(N(C(=O)CCl)C(C(=O)NCCc2ccccc2)c2cccs2)cc1Cl (stereo not given)
- AC50 (measured here: AC50 at 8 h): 193 nM
- AC50 (measured here: AC50 at 24 h): 146 nM
- AC50 (measured here: AC50 at 48 h): 2640 nM

Structure (SMILES): Cc1onc(C(=O)N2CCN(C(c3ccc(Cl)cc3)c3ccc(Cl)cc3)CC2)c1[N+](=O)[O-]
- AC50 (measured here: AC50 at 8 h): 60 nM
- AC50 (measured here: AC50 at 24 h): 36.6 nM
- AC50 (measured here: AC50 at 48 h): 499 nM

Structure (SMILES): COc1ccc(N(C(=O)CCl)C(C(=O)NCCc2ccccc2)c2cccs2)cc1Cl (stereo not given)
- AC50 (measured here: AC50 at 8 h): 21 nM
- AC50 (measured here: AC50 at 24 h): 25.9 nM
- AC50 (measured here: AC50 at 48 h): 122 nM

Structure (SMILES): CC(C)(C)OC(=O)NCCOCCOCCOc1ccc(N(C(=O)CCl)C(C(=O)NCCc2ccccc2)c2cccs2)cc1Cl (stereo not given)
- AC50 (measured here: AC50 at 8 h): 43.5 nM
- AC50 (measured here: AC50 at 24 h): 34.2 nM
- AC50 (measured here: AC50 at 48 h): 390 nM
